# Measured values: patent US10519177B2, “Heterocyclic compounds and uses thereof” (Plexxikon Inc., priority 2013, dated 2019)
# Legend:
# BRD4-BD12 (1-477) = BRD4-BD12 (1-477) (Homo sapiens (Human), UniProt O60885); assay: Alphascreen binding assay BRD4-BD12; conditions: BRD4(1 2) H4; read-out: Biochemical activity (IC50 μM) BRD4(1 2) H4
# Description: Binding of compounds of formula (I) with bromodomain 2, 3 4 was assessed using Alphascreen binding assay. The inhibition of the interaction between bromodomain and its acetylated target protein (Filippakopoulos P et al. 2012) was measured quantitatively using recombinant BRD proteins, an acetylated Histone 4 peptide and AlphaScreen™ technology. In absence of inhibition the BRD protein bound to AlphaScreen™ nickel chelate acceptor beads can interact with the acetylated Histone 4 peptide which is immobilized by the AlphaScreen™ Streptavidin coated beads. This interaction brings donor and acceptor beads in proximity. The close proximity allows the singlet oxygen produced by laser excitation of the donor beads to reach the acceptor beads and generate a luminescence signal.
# Recombinant human bromodomains containing the N-terminal bromodomain (BRD2-BD1 (71-194), BRD3-BD1 (24-144) and BRD4-BD1 (44-164)) or dual bromodomains (BRD4-BD12 (1-477), BRD4-BD12 (1-472)) were prepared and purified as described in protein expression and purification session. The peptide is human Histone H41-21K5AcK8AcK12AcK16Ac-Biotin (Anaspec CA, USA).
# Protocol for BRD2, BRD3 and BRD4 assay: All components are prepared in buffer composed of 50 mM HEPES pH 7.5, 100 mM NaCl, 0.01% bovine serum albumin (“BSA”), 0.01% Triton X-100, 2 mM dithiothreitol (“DTT”). 7 μL of Bromodomain protein and 7 μL of peptide are added to wells containing 1 μL of various concentrations of test compounds of formula (I) or DMSO vehicle in an Alphaplate (PerkinElmer GA, USA) and incubated for 1 hour at room temperature. 4 μL donor and acceptor bead mixture is then added with final concentrations of 7.5 μg/ml. 30 minutes after bead addition, Alpha signal is read on the Envision spectrometer (λEx 680 nm, λEm 520-620 nm). Final concentrations of bromodomain proteins and peptide are as shown below.
# All data was normalized to the mean of 16 high and 16 low control wells on each plate. A four parameter curve fit of the following formula was then applied: Y=a+(b−a)/(1+(x/c)^d) Where ‘a’ is the minimum, ‘b’ is the maximum, ‘c’ is the pIC50 and ‘d’ is the Hill slope. Protein Expression and Purification
# Recombinant human bromodomains containing the N-terminal bromodomain (BRD2-BD1 (71-194), BRD3-BD1 (24-144) and BRD4-BD1 (44-164)) or dual bromodomains (BRD4-BD12 (1-477), BRD4-BD12 (1-472)) were expressed in E. coli cells (in a modified pET vector) with an N-terminal six-His tag and purified using a combination of both IMAC (Ni-affinity) and size exclusion chromatography steps.
# Recombinant BRD proteins were expressed using the E. coli strain BL21-CodonPlus (DE3) (Agilent Technologies CA, USA). Cells were grown in Terrific Broth (TB) media to an OD600 of 1.2 at 37° C. at which temperature was reduced to 25° C., protein was induced with 1.0 mM ispropyl-β-D-thiogalactopyranoside (“IPTG”) for 12-18 hours and harvested by centrifugation at 8000×g for 20 minutes. Cells were re-suspended in 0.1M K2PO4 pH 8.0, 250 mM NaCl, 10% Glycerol, 0.75% NP-40, 25 mM Imidazole, 5 mM beta-mercaptoethanol (“BME”) with 0.2 mg/ml Lysosyme, 2.0 mM phenylmethanesulfonyl fluoride (“PMSF”), 25 μg/ml DNAse I, incubated on ice for 30 minutes and lyzed with a cell disruptor (MicroFluidics MA, USA). The lysate was clarified by centrifugation at 20,000×g for 2 hours. The protein was captured with Ni-NTA resin (Life Technologies, USA). Contaminating proteins were washed off with 25 mM Tris-HCl pH 8.3, 250 mM NaCl, 12% Glycerol and 50 mM Imidazole. Following 3× wash steps, protein was eluted step wise using a 50 mM HEPES pH 7.5, 500 mM NaCl and 400 mM Imidazole. The protein was further purified using Gel Filtration column 26/600 Superdex 200 (GE Biosciences NJ, USA) in 50 mM HEPES pH 7.5, 250 mM NaCl. The protein was aliquoted and flash-frozen in liquid Nitrogen.
# MV-4-11 cells = assay: Oncology cell growth assay MV-4-11 (CellTiter Glo); format: cell-based; conditions: Homo sapiens, MV4-11, 72 h; MV-4-11, 3d growth; read-out: Cell activity (IC50 μM) MV-4-11 3d-Growth
# Summary of the method: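 MV-4-11 AML cells (MLL-AF4), 3000 per well, exposed to 8-point 1:3 compound titration from 10 μM top concentration (0.2% DMSO) for 72 h. Viability by CellTiter Glo luminescence, normalized to DMSO controls; pIC50 from four-parameter curve fit.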
Structure (SMILES),IC50 (BRD4-BD12 (1-477)) [µM],IC50 (MV-4-11 cells) [µM]
"COC(=O)c1ccc(-c2cn(Cc3ccccc3OC)c3cc(-c4c(C)noc4C)cnc23)cc1 [P-0933, methyl 4-[6-(3,5-dimethylisoxazol-4-yl)-1-[(2-methoxyphenyl)methyl]pyrrolo[3,2-b]pyridin-3-yl]benzoate]",< 1,1 to 10
"COc1ccccc1Cn1cc(-c2ccc(C(=O)O)cc2)c2ncc(-c3c(C)noc3C)cc21 [P-0934, 4-[6-(3,5-dimethylisoxazol-4-yl)-1-[(2-methoxyphenyl)methyl]pyrrolo[3,2-b]pyridin-3-yl]benzoic acid]",< 1,< 1
"Cc1noc(C)c1-c1cnc2c(I)cn(Cc3ccncc3)c2c1 [P-0935, 4-[3-iodo-1-(4-pyridylmethyl)pyrrolo[3,2-b]pyridin-6-yl]-3,5-dimethyl-isoxazole]",< 1,< 1
"COC(=O)c1ccc(-c2cn(Cc3ccncc3)c3cc(-c4c(C)noc4C)cnc23)cc1 [P-0936, methyl 4-[6-(3,5-dimethylisoxazol-4-yl)-1-(4-pyridylmethyl)pyrrolo[3,2-b]pyridin-3-yl]benzoate]",< 1,< 1
"Cc1noc(C)c1-c1cnc2c(-c3ccc(C(=O)O)cc3)cn(Cc3ccncc3)c2c1 [P-0937, 4-[6-(3,5-dimethylisoxazol-4-yl)-1-(4-pyridylmethyl)pyrrolo[3,2-b]pyridin-3-yl]benzoic acid]",< 1,< 1
"COc1cc(-c2cn([C@@H](C)c3ccccn3)c3cc(-c4c(C)noc4C)cnc23)ccc1C(=O)O [P-0938, 4-[6-(3,5-dimethylisoxazol-4-yl)-1-[(1S)-1-(2-pyridyl)ethyl]pyrrolo[3,2-b]pyridin-3-yl]-2-methoxy-benzoic acid]",< 1,< 1
"COC(=O)c1ccc(-c2cn(Cc3cccc(C)n3)c3cc(-c4c(C)noc4C)cnc23)cc1OC [P-0939, methyl 4-[6-(3,5-dimethylisoxazol-4-yl)-1-[(6-methyl-2-pyridyl)methyl]pyrrolo[3,2-b]pyridin-3-yl]-2-methoxy-benzoate]",< 1,< 1
"Cc1noc(C)c1-c1cnc2c(C#N)cn(C(c3ccccc3)c3ccccn3)c2c1 (centres unmarked) [P-0940, 6-(3,5-dimethylisoxazol-4-yl)-1-[phenyl(2-pyridyl)methyl]pyrrolo[3,2-b]pyridine-3-carbonitrile]",< 1,< 1
"COc1cc(-c2cn(Cc3cccc(C)n3)c3cc(-c4c(C)noc4C)cnc23)ccc1C(=O)O [P-0941, 4-[6-(3,5-dimethylisoxazol-4-yl)-1-[(6-methyl-2-pyridyl)methyl]pyrrolo[3,2-b]pyridin-3-yl]-2-methoxy-benzoic acid]",< 1,< 1
"COC(=O)C1(c2ccc(-c3cn([C@@H](C)c4ccccn4)c4cc(-c5c(C)noc5C)cnc34)cc2)CC1 [P-0942, methyl 1-[4-[6-(3,5-dimethylisoxazol-4-yl)-1-[(1S)-1-(2-pyridyl)ethyl]pyrrolo[3,2-b]pyridin-3-yl]phenyl]cyclopropanecarboxylate]",< 1,< 1
"Cc1noc(C)c1-c1cnc2c(-c3ccc(C4(C(=O)O)CC4)cc3)cn(CC3(C)CCOCC3)c2c1 [P-0943, 1-[4-[6-(3,5-dimethylisoxazol-4-yl)-1-[(4-methyltetrahydropyran-4-yl)methyl]pyrrolo[3,2-b]pyridin-3-yl]phenyl]cyclopropanecarboxylic acid]",< 1,1 to 10
"Cc1noc(C)c1-c1cnc2c(-c3ccc(C#N)nc3)cn(CC3(C)CCOCC3)c2c1 [P-0944, 5-[6-(3,5-dimethylisoxazol-4-yl)-1-[(4-methyltetrahydropyran-4-yl)methyl]pyrrolo[3,2-b]pyridin-3-yl]pyridine-2-carbonitrile]",< 1,< 1
"Cc1noc(C)c1-c1cnc2c(-c3cnn(C)c3)cn(CC3(C)CCOCC3)c2c1 [P-0945, 3,5-dimethyl-4-[3-(1-methylpyrazol-4-yl)-1-[(4-methyltetrahydropyran-4-yl)methyl]pyrrolo[3,2-b]pyridin-6-yl]isoxazole]",< 1,< 1
"Cc1noc(C)c1-c1cnc2c(-c3ccc(C(C)(C)C#N)cc3)cn(CC3(C)CCOCC3)c2c1 [P-0946, 2-[4-[6-(3,5-dimethylisoxazol-4-yl)-1-[(4-methyltetrahydropyran-4-yl)methyl]pyrrolo[3,2-b]pyridin-3-yl]phenyl]-2-methyl-propanenitrile]",< 1,< 1
"Cc1noc(C)c1-c1cnc2c(I)cn(Cc3ncccc3F)c2c1 [P-0947, 4-[1-[(3-fluoro-2-pyridyl)methyl]-3-iodo-pyrrolo[3,2-b]pyridin-6-yl]-3,5-dimethyl-isoxazole]",< 1,< 1
"COC(=O)c1ccc(-c2cn(Cc3ncccc3F)c3cc(-c4c(C)noc4C)cnc23)cc1 [P-0948, methyl 4-[6-(3,5-dimethylisoxazol-4-yl)-1-[(3-fluoro-2-pyridyl)methyl]pyrrolo[3,2-b]pyridin-3-yl]benzoate]",< 1,< 1
"Cc1noc(C)c1-c1cnc2c(-c3ccc(C(=O)O)cc3)cn(Cc3ncccc3F)c2c1 [P-0949, 4-[6-(3,5-dimethylisoxazol-4-yl)-1-[(3-fluoro-2-pyridyl)methyl]pyrrolo[3,2-b]pyridin-3-yl]benzoic acid]",< 1,< 1
"COC(=O)c1ccc(-n2cc(P(=O)(c3ccccc3)c3ccccc3)c3cc(-c4c(C)noc4C)cnc32)cc1 [P-0950, methyl 4-[5-(3,5-dimethylisoxazol-4-yl)-3-diphenylphosphoryl-pyrrolo[2,3-b]pyridin-1-yl]benzoate]",< 1,< 1
"Cc1noc(C)c1-c1cnc2c(c1)c(P(=O)(c1ccccc1)c1ccccc1)cn2-c1ccc(C(=O)O)cc1 [P-0951, 4-[5-(3,5-dimethylisoxazol-4-yl)-3-diphenylphosphoryl-pyrrolo[2,3-b]pyridin-1-yl]benzoic acid]",< 1,< 1
"COC(=O)C1(c2ccc(-c3cn(Cc4ccccn4)c4cc(-c5c(C)noc5C)cnc34)cc2)CC1 [P-0952, methyl 1-[4-[6-(3,5-dimethylisoxazol-4-yl)-1-(2-pyridylmethyl)pyrrolo[3,2-b]pyridin-3-yl]phenyl]cyclopropanecarboxylate]",< 1,< 1
"COc1cc(-c2cn(Cc3ccccn3)c3cc(-c4c(C)noc4C)cnc23)ccc1C(=O)O [P-0953, 4-[6-(3,5-dimethylisoxazol-4-yl)-1-(2-pyridylmethyl)pyrrolo[3,2-b]pyridin-3-yl]-2-methoxy-benzoic acid]",< 1,< 1
"Cc1noc(C)c1-c1cnc2c(-c3ccc(C4(C(=O)O)CC4)cc3)cn([C@@H](C)c3ccccn3)c2c1 [P-0955, 1-[4-[6-(3,5-dimethylisoxazol-4-yl)-1-[(1S)-1-(2-pyridyl)ethyl]pyrrolo[3,2-b]pyridin-3-yl]phenyl]cyclopropanecarboxylic acid]",< 1,< 1
